Experimental data as given in article PMC11256303 (ACS Omega, 2024).

These compounds were tested against α-amylase (assay: in vitro α-amylase inhibition). Details: read-out: alpha-amylase IC50 ± SEM, standard acarbose.
Format: biochemical
Clc1ccc(Nc2nc(/N=C\c3ccc(Br)cc3)ns2)cc1Cl [Compound 7] was tested, and the IC50 was 20.1 ± 0.4 µM. With Cc1ccc(/C=N\c2nsc(Nc3ccc(Cl)c(Cl)c3)n2)cc1 [Compound 4] the IC50 was 15.3 ± 0.3 µM. Work on Clc1ccc(/C=N\c2nsc(Nc3ccc(Cl)c(Cl)c3)n2)cc1Cl [Compound 6] yielded an IC50 of 1.9 ± 0.1 µM. For FC(F)(F)c1cccc(Nc2nc(/N=C\c3ccc(Cl)cc3)ns2)c1 [Compound 13], the IC50 was 1.5 ± 0.1 µM. COc1ccccc1/C=N\c1nsc(Nc2ccc(Cl)c(Cl)c2)n1 [Compound 8] gave an IC50 of 16.2 ± 0.3 µM. Work on FC(F)(F)c1cccc(Nc2nc(/N=C/c3ccc(Cl)cc3Cl)ns2)c1 [Compound 15, (E)-3-((2,4-dichlorobenzylidene)amino)-N-(3-(trifluoromethyl)phenyl)-1,2,4-thiadiazol-5-amine] yielded an IC50 of 0.8 ± 0.05 µM. With COc1cccc(/C=N\c2nsc(Nc3ccc(Cl)c(Cl)c3)n2)c1 [Compound 5] the IC50 was 17.7 ± 0.3 µM.
